Laboratory results: patent US20080064053A1, “Genotoxicity Testing” (priority 2003, published 2008)
Several values for one entry are separate records, joined by “and”; a condition that tells them apart may be missing. Equal values may be shown once. Read-outs that look alike come from different tables or passages of the source.

Columns and labels:
SOS lux = conditions: cited from earlier work
[1] = system: RNR3 regulatory element-GFP reporter; experiment: RNR3-GFP reporter microplate assay (pGenRNR3); type: cell-based, Saccharomyces cerevisiae; conditions: yeast test strain transformed with pGenRNR3
Excerpt: (§1) In addition to the RAD54 vectors described in the previous Examples, the inventors constructed an FF18984 reporter strain containing a replicative plasmid harbouring an RNR regulatory element. The vectors pGenRNR2 or pGenRNR3 are shown in FIGS. 24 and 25, respectively, and contain the upstream non-coding DNA sequence of the RNR2 gene or RNR3 gene fused to the yeast-enhanced Aequorea victoria GFP gene. A control FF18984 strain containing an identical plasmid except that 2 base pairs have been removed at the start of the GFP gene, such that no GFP is made, was also examined.
In order to test the brightness of the reporter for RNR3 constructs, similar methodology was used as for RAD54 constructs, as described in the previous Examples, but using instead pGENRNR3.

SOS umuC = conditions: cited from earlier work
[2] = system: RNR2 regulatory element-GFP reporter; experiment: RNR2-GFP reporter assay (pGenRNR2), cuvette and microplate; type: cell-based, Saccharomyces cerevisiae; conditions: yeast test strain transformed with pGenRNR2
Excerpt: as §1
In order to test the brightness of the reporter for RNR2 constructs, similar methodology was used as for RAD54 constructs, as described in the previous Examples, but using instead pGENRNR2.

[3] = system: RAD54 promoter-GFP reporter (pGen001); conditions: for GSA genotoxicity result: GenT01 yeast, overnight at 25° C., 2% DMSO diluent, no S9
[4] = system: yeast strain GenT01 (FF18984); experiment: GreenScreen assay (GSA), cytotoxicity: final cell density by absorbance; conditions: GenT01 yeast, overnight at 25° C.
Method: The following standard protocol was followed. A 1 mM stock of the test chemical was prepared in 2% v/v aqueous DMSO, and used to make 2 identical dilution series across the microplate and a ‘control’ (see below). To achieve this, 150 microlitres of the test chemical solution were put into 2 microplate wells. Each sample was serially diluted by transferring 75 microlitres into 75 microlitres of 2% DMSO, mixing, and then taking 75 microlitres out and into the next well. This produced 9 serial dilutions of 75 microlitres each.
75 microlitres of the yeast suspension were added to each well of the diluted chemical: GenT01 to one series and GenC01 to the second, and to appropriate standards and controls. After the plates were filled, they were sealed using either a gas permeable membrane (Breath-easy, Diversified Biotech, USA) or a plastic lid, and then incubated without shaking, overnight at 25° C.
Following overnight incubation, fluorescence and absorbance data were collected from the microplates. […] Absorbance was measured through a 620 nm filter in both instruments. […] Fluorescence data were divided by absorbance data to give ‘brightness units’, the measure of average GFP induction per cell. […] In this way, one can distinguish between a small number of highly fluorescent cells and a large number of weakly fluorescent cells. In order to correct for induced cellular autofluorescence and intrinsic compound fluorescence, the brightness values for the GenC01 strain were subtracted from those of GenT01. This makes visual assessment of the data more reliable.
The cytotoxicity threshold is set at 80% of the cell density reached by the untreated control cells.
Table 12 lists chemicals/solvents that are often used with test samples, to promote dissolution etc. […] If these chemicals are used to dissolve compound stock solutions, they should also be included in the diluent used to make the compound dilution series. […] Interference of DMSO, a free radical scavenger, in the recombinogenic properties of several oxidising agents has previously been reported.

[5] = system: RAD54 promoter-yEGFP reporter; experiment: Fluorescence assay with intact yeast cells in cuvettes, RAD54-GFP reporter plasmid pWDH445 and rearranged derivatives; type: cell-based, Saccharomyces cerevisiae; conditions: 0.005% MMS, 15 hours
Method: Starter cultures were initiated by inoculating 1.5 ml of F1 medium (plus appropriate nutritional supplements and 2% glucose) in sterile 15 ml polythene centrifuge tubes with small portions of colonies, picked by inoculating loop from stock plates. These starter cultures were grown for up to 24 hours at 30° C. with shaking (at 120 rpm) and were used as the source of inoculum for the assay cultures. Cells were inoculated into 1.5 ml F1 cultures in 15 ml polythene centrifuge tubes to give an initial OD600 nm of ˜0.1 (typically a 10-15 μl inoculum per 1.5 ml culture). The lids of the tubes were left one-quarter unscrewed, but held in place by masking tape, to ensure maximum oxygenation for GFP maturation. Half of the tubes were treated with 0.005% methyl methanesulphonate (MMS, methanesulphonic acid methyl ester) and half left as unchallenged controls. MMS was purchased as a liquid and this stock solution was taken to be 100%. […] For the measurement of intact yeast cell fluorescence of cells grown in YPD or SD, the cells were washed twice in sterile water to remove traces of autofluorescent medium and resuspended in 1.5 ml of sterile water. […] 4-window cuvettes were necessary since measurement of fluorescence emission is performed perpendicular to the path of excitation light.
Fluorescence measurements were performed with a Perkin-Elmer LS50B Fluorescence Spectrometer (Perkin-Elmer Ltd., Beaconsfield, UK). […] For the yEGFP expressing reporter, the excitation and emission wavelengths were set to 490 nm and 518 nm respectively (due to the altered fluorescence characteristics of yEGFP), with 5 nm slit widths. To account for differences in cell numbers between YPD or SD assay cultures, the OD600 nm was recorded for each cuvette. Similarly, in order to measure protein extraction efficiency, light absorption at 280 nm (OD280 nm) was measured for crude cell extracts. […] The y-axis on uncorrected fluorescence scans gives raw data in the form of machine defined fluorescence intensity (“INT”) units. […]

For `COS(C)(=O)=O` [MMS, methyl methanesulfonate], which “SOS LUX ASSAY (M), LEC” value (SOS lux) is on record?
The value was 7.3e-05 M.

And the “fluorescence induction by the reporter” value [1]?
The value was “increases with increasing concentration”.

And the “SOS UMUC ASSAY (M), LEC” value (SOS umuC)?
Its value is 0.00015 M.

And the “brightness/fluorescence of GFP reporter” value [2]?
Its value is “induced”.

What about the GSA genotoxicity result [3] of the same compound?
Its GSA genotoxicity result is “induced”.

What about the GSA genotoxicity result ([3]; listed as Methyl methanesulfonate) of the same compound?
The GSA genotoxicity result was “genotoxic”.

And the “GSA (M), lowest effective concentration (LEC)” value ([3]; S9 −)?
Its value is 9.3e-06 M.

What about the GSA cytotoxicity result [4] of the same compound?
Its GSA cytotoxicity result is “strongly cytotoxic”.

What about the induction ratio ([5]; FF18984 cells bearing normal pWDH445) of the same compound?
The induction ratio was 7.72 and 5.5.

What about the induction ratio ([5]; FF18984 cells re-transformed with modified (rearranged) plasmid) of the same compound?
The induction ratio was 5.2.

What about the induction ratio ([5]; original bright variant FF18984 cells carrying pWDH445) of the same compound?
Its induction ratio is 3.27.
